Experimental data as given in patent publication US20170028016A1, “METHODS OF TREATMENT OF C. DIFFICILE SPORES WITH RAMOPLANIN” (Nanotherapeutics, Inc., priority 2014, published 2017).
“Also recorded” adds a separate entry of the source.

Assays:
[1] = system: C. difficile spores (ribotype 027); assay: Antimicrobial survey: continuous exposure of spores in water for six days, spore counts by plating; conditions: 37 °C, D0-D6
[2] = system: C. difficile spores (ribotype 027); assay: Dose-dependent sporicidal assay: spores exposed to ramoplanin, washed 6 times, plated on NaTBA; assay type: cell-based, Clostridium difficile
Method: C. difficile exposure at three levels of ramoplanin (2, 300, 600 μg/mL) and to water was evaluated. […] The wash supernatant fluids (n=6/level) and the final spore suspensions (n=1/level) were counted by plating three 10-fold serial dilutions on NaTaurocholate Blood Agar (NaTBA). Each set of three counts were averaged and compared by t-test.

[3] = system: C. difficile spores (ribotype 027); assay: Longevity / persistence assay: 30 min ramoplanin exposure, six washes, storage in water to day 28, spore counts; assay type: cell-based, Clostridium difficile; conditions: for spore growth when plated undiluted: to day 28
Method: As above, C. difficile (027) was exposed to multiple doses of Ramoplanin (30 min/37 C) and to water, stored at 37 C (anaerobic), and sampled at days D0, D1 D7, D14, and D28. […] From each level at each time, three aliquots were taken (i.e. n=3 for each subsequent assay) and each washed 6 times before the spore resuspension. Each wash (100 only) and spore suspension (100, 10-1 10-2) were counted on NaTBA.

[4] = system: C. difficile spores (ribotype 027), exosporium; assay: Dependency of activity on exosporium: intact versus stripped (processed) spores exposed to ramoplanin; assay type: cell-based, Clostridium difficile
Method: C. difficile (027) exposure (30 min/37 C) to multiple doses of ramoplanin and to water was evaluated. Following ramoplanin exposure for 30 minutes, sampling occurred at days D0, D1, D7, D14, and D28. Without wishing to be bound by any particular theory, sampling over time may characterize the duration of effect having clinical implication on the duration of oral therapy. From each level at each time point, three aliquots were taken (i.e. n=3 for each subsequent assay) and each washed 6 times before the spore re-suspension. Each wash (100 only) and spore suspension (100, 10-1 10-2) were counted on NaTBA and assayed for ramoplanin by a zone of inhibition assay using S. salivarius.
From this example, it appears that the absence of a spore exosporium diminishes the bactericidal effect of Ramoplanin. Following enzyme digest and sonication of spore prep (Cortes et. al.) to removal the exosporium, the spores were exposed (027) to single dose of Ramoplanin (600 mcg/mL) vs water for 30 min and sampled (supernatant and prep) at 1 time point (T0).
Spore exosporia were removed as described by Escobar-Cortes et al. 2013. Proteases and sonication specifically remove the exosporium layer of spores of C. difficile strain 630. […] Briefly, spores were washed four times by centrifugation (10 minutes at 10,000×g) and resuspended in deionized water followed by final resuspension in 15 mL of PBS and sonicated for 90 seconds. Three mL of 10% Sarkosyl (detergent) were added to each preparation and subsequently incubated 15 minutes at room temperature with rocking. Preparations were then centrifuged for 10 minutes at 10,000×g, and pellets were resuspended in 10 mL PBS with 0.1 mL of 1M Tris and 10 mg of lysozyme. Spores were rocked overnight at 37±2° C. and then sonicated for 90 seconds, passed through a 50% solution of sucrose using a swinging bucket rotor for 20 minutes at 4,000×g, and resuspended in a solution containing 3 mL PBS, 200 mM EDTA, 300 ng/mL Proteinase K and 1% Sarkosyl. The spores were further rocked at room temperature for 20 minutes and were passed through a 50% solution of sucrose as previously described by Sabja et al, Id. Next, the spores were washed in deionized water by two centrifugation steps for 10 minutes at 10,000×g and resuspended in deionized water; plating and incubation were carried out as described in the foregoing text.
Adherence of ramoplanin to C. difficile exosporium: In order to determine whether the exosporium was essential to the observed growth-inhibiting effects of ramoplanin, the exosporia were processed as described in Escobar-Cortes et al, 2013, resulting in spores with “stripped” exosporia, and then compared to unprocessed spores (with “intact” exosporia) under three separate conditions (all ramoplanin concentrations were 300 μg/mL): (1) ramoplanin exposure with no subsequent spore processing (i.e., “intact”), (2) ramoplanin exposure with subsequent spore processing (i.e., “stripped”), and (3) water exposure with subsequent spore processing (FIG. 6). […] After ramoplanin exposure, the difference in spore counts between samples that were not processed (with presumed intact exposporia) and samples that were processed (without presumed exposporia) was significant (p<0.0001). No difference in spore count was noted when comparing processed spores that had been exposed to ramoplanin to spores exposed only to water (p=0.389).

CN[C@H](CC(C)C)C(=O)N[C@H]1C(=O)N[C@@H](CC(N)=O)C(=O)N[C@H]2C(=O)N[C@H]3C(=O)N[C@H](C(=O)N[C@H](C(=O)O)c4cc(O)cc(O)c4-c4cc3ccc4O)[C@H](O)c3ccc(c(Cl)c3)Oc3cc2cc(c3O[C@@H]2O[C@H](CO)[C@@H](O)[C@H](O)[C@H]2O[C@H]2C[C@](C)(N)[C@H](O)[C@H](C)O2)Oc2ccc(cc2Cl)[C@H]1O [vancomycin]
spore counts on continuous exposure, compared to baseline ([1]; vancomycin 500 μg/mL): did not significantly reduce spore counts

ramoplanin
persistence of bactericidal effect after washes ([2]; multiple washes (×6)): effect persists after multiple washes | exposure time giving maximal effect ([2]; no apparent difference in effect vs. time): 30 min | viability of ramoplanin-exposed spores when plated ([2]; ramoplanin 300 μg/mL (below fecal level), ribotype 027): non-viable | organism recovery from 30 min after exposure and wash through day 28 ([3]; 30 min/37 C exposure, 6 washes, stored at 37 C anaerobic): no organisms are recoverable | inhibition of spore growth relative to controls ([3]; ramoplanin 2 μg/mL, 30 min exposure, over 28 days): no inhibition relative to controls | mean spore counts ±SEM over 28 days ([3]; ramoplanin 2 μg/mL, 30 min exposure, six washes): 2.3×10^4±4.6×10^2 | spore counts after diluting samples 10× ([3]; ramoplanin 300 μg/mL and 600 μg/mL, 30 min exposure): growth not measurable at previous dilution; also recorded: spore counts similar to the 0 and 2 μg/mL exposed spores | spore growth when plated undiluted ([3]; ramoplanin 300 μg/mL, 30 min exposure, six washes): no counts; also recorded: no growth | spore growth when plated undiluted ([3]; ramoplanin 600 μg/mL, 30 min exposure, six washes): no counts; also recorded: no growth | growth-inhibitory effect when exosporia were removed before or after exposure ([4]; after multiple washes): not present | spore counts, spores processed after exposure (stripped exosporia) ([4]; ramoplanin 300 μg/mL, exosporia removed after exposure): counts equivalent to water exposure | spore growth, unprocessed spores (intact exosporia) ([4]; ramoplanin 300 μg/mL, no subsequent spore processing): no measurable counts; also recorded: no growth | C. difficile recovery, spores stripped of the exosporium ([4]; ramoplanin 600 μg/mL, 30 min): high organism recovery | C. difficile recovery, spores with intact exosporium ([4]; ramoplanin 600 μg/mL, 30 min): non-recoverable C. difficile | spore counts on continuous exposure ([1]; ramoplanin 300 μg/mL): no counts; also recorded: no growth

Cc1ncc([N+](=O)[O-])n1CCO [metronidazole]
spore counts on continuous exposure, compared to baseline ([1]; metronidazole 10 μg/mL): did not significantly reduce spore counts
